Experimental data taken from patent publication US20150184144A1, “Liquid Enzyme Composition and Method for Enzyme Recovery” (Novozymes A/S, priority 2012, published 2015).

System: Lactobacillus (L. buchneri and L. para paracasei)
Assay: Challenge screening of liquid enzyme formulations inoculated with Lactobacillus, viable cells (CFU)
Assay type: cell-based
Conditions: for CFU/ml After 1 week / CFU/ml After 2 weeks: 20-25° C.
Protocol: The antimicrobial effect may be determined by analyzing viable cells (CFU) of the liquid formulation after inoculating with Lactobacillus and incubating for 1-2 weeks at 20-25° C. and comparing with a similar liquid composition without the fatty acid or salt.
Challenge screening was performed by inoculating with 10^5-10^6 CFU/ml of Lactobacillus (L. buchneri and L. para paracasei), incubating for two weeks at 20-25° C., and analyzing viable cells (CFU) before and after inoculation and after 1 and 2 weeks.
The results are shown as CFU/ml (detection limit 100): […]

[1] = Example 5: 0.3% w/w inhibitor in glucoamylase formulation, pH 4.7
[2] = Example 5: glucoamylase (mixture of two variants) formulation, 48% w/w solids, pH 4.7, 0.3% w/w Na-octanoate or sodium benzoate instead, with or without 0.3% Na acetate trihydrate
[3] = Example 5: glucoamylase formulation, pH 4.7, 0.3% w/w Na-octanoate or sodium benzoate instead, with or without 0.3% Na acetate trihydrate
[4] = Example 1: Talaromyces glucoamylase formulation, 0.5% w/w Na-hexanoate, pH 5.0, detection limit 100

CC(=O)[O-].O.O.O.[Na+] [acetate, Na acetate trihydrate, reference compound]
antimicrobial effect against Lactobacillus (in words) [1]: not effective

CCCCCCCC(=O)[O-].[Na+] [Octanoate, Na-Caprylate (Na-octanoate)]
antimicrobial effect against Lactobacillus (in words) (Example 4: 0.5% w/w Na-octanoate in glucoamylase formulation, pH 5.0, compared with formate+sorbate+propionate): strong antimicrobial (germicidal) effect | antimicrobial effect against Lactobacillus (in words) [1]: strong antimicrobial (germicidal) effect | CFU/ml Before inoculation [2]: ≦100 CFU/ml | CFU/ml After inoculation [3]: 170000 CFU/ml | CFU/ml After 1 week [3]: ≦100 CFU/ml | CFU/ml After 2 weeks [3]: ≦100 CFU/ml

CCCCCC(=O)[O-].[Na+] [Na-hexanoate]
antimicrobial effect against Lactobacillus (in words) (Example 1: 0.5% w/w Na-hexanoate in glucoamylase formulation, pH 5.0): antimicrobial (germicidal) effect | CFU/ml After 1 week [4]: ≦100 CFU/ml | CFU/ml After 2 weeks [4]: ≦100 CFU/ml | CFU/ml After inoculation (Example 1: Talaromyces glucoamylase formulation, 0.5% w/w Na-hexanoate, pH 5.0, inoculated with 10^5-10^6 CFU/ml): 180000 CFU/ml | CFU/ml Before inoculation (Example 1: Talaromyces glucoamylase formulation, 43% w/w solids (glucose), 0.5% w/w Na-hexanoate, pH 5.0, detection limit 100): ≦100 CFU/ml | antimicrobial effect against Lactobacillus (in words) (Example 2: 0.5% w/w Na-hexanoate in xylanase and cellulase formulation, pH 4.6): antimicrobial (germicidal) effect | antimicrobial effect against Lactobacillus (in words) (Example 3: 0.5% w/w Na-hexanoate in cellulase and xylanase formulation, pH 4.55): antimicrobial (germicidal) effect

O=C([O-])c1ccccc1.[Na+] [Benzoate, sodium benzoate, reference compound]
antimicrobial effect against Lactobacillus (in words) [1]: not effective | CFU/ml Before inoculation [2]: ≦100 CFU/ml | CFU/ml After inoculation [3]: 170000 CFU/ml | CFU/ml After 1 week [3]: 150000 CFU/ml | CFU/ml After 2 weeks [3]: 120000 CFU/ml
